Results on four molecules are retold here after patent publication US20250314661A1, “CHEMIGENETIC TOOLS AND METHODS OF CONTROLLING AND ASSESSING PROTEIN PHASE SEPARATION” (THE REGENTS OF THE UNIVERSITY OF CALIFORNIA, priority 2022, published 2025).

One data set has as its system other cells. To be noted: cells other than multiple myeloma; Siu et al. (2017); cited from earlier work.
The target in data set [1] is MYCN fused to FRB and mEGFP (UniProt P04198). Kind of data set: cell-based or functional assay.
MYCN fused to FRB and mEGFP, sequence (P04198 other isoform, or with tags, fused parts or gaps): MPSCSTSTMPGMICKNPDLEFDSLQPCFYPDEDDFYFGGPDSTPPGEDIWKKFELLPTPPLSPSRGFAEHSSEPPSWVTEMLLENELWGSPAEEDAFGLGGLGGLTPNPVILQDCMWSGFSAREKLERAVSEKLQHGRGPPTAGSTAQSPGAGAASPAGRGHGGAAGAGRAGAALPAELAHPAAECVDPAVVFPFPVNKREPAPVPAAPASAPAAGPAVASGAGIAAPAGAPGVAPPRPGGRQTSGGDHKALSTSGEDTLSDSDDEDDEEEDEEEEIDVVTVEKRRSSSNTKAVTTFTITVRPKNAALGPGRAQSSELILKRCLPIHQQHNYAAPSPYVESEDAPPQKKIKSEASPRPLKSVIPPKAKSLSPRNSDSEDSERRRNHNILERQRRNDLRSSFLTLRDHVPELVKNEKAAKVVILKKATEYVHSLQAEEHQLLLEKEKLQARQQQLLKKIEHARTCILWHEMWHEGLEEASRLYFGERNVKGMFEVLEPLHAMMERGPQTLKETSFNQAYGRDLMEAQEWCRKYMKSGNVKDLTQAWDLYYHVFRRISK
The next data set concerns Ctgf. Kind of data set: RT-qPCR of YAP target gene Ctgf mRNA. The format is cell-based. To be noted: cells transfected with CEL-EGFP-YAP without the ZIF construct. The method, then: FIG. 6A-D show representative images illustrating that the SparkDrop-Y AP condensates produce nascent RNAs and upregulate a direct target gene of Y AP. […] The cells were short labeled with EU for 1 hour. Arrows point to the induced YAP condensates and the colocalized nascent RNA droplets. Arrowhead points to nucleoli. The nucleus marked by asterisk was not transfected with SparkDrop-YAP. […] Data are shown as meant SD (n=3).
Lastly, whether the SparkDrop-Y AP condensates upregulate mRNA levels of a YAP target gene Ctgf were determined using RT-qPCR. […] As a control, cells were incubated with DMSO. […] Next, a positive control was conducted by incubating cells with sorbitol, which is known to induce osmotic stress and drive YAP condensate formation. […] Lastly, cells were transfected with CEL-EGFP-Y AP (without the ZIF construct), and incubated with lenalidomide or DMSO.

A further data set has as its system ERK. Kind of data set: ERK activity reporter ERK-KTR translocation after lenalidomide-induced SOScat translocation.
The target in the next data set is T1, DDB1 (UniProt Q16531 1-1140).
T1 construct: Tested both as endogenous protein of HEK293 cells and with exogenous over-expression; also called endogenous DDB1; exogenous DDB1
T1 sequence (Q16531 whole entry): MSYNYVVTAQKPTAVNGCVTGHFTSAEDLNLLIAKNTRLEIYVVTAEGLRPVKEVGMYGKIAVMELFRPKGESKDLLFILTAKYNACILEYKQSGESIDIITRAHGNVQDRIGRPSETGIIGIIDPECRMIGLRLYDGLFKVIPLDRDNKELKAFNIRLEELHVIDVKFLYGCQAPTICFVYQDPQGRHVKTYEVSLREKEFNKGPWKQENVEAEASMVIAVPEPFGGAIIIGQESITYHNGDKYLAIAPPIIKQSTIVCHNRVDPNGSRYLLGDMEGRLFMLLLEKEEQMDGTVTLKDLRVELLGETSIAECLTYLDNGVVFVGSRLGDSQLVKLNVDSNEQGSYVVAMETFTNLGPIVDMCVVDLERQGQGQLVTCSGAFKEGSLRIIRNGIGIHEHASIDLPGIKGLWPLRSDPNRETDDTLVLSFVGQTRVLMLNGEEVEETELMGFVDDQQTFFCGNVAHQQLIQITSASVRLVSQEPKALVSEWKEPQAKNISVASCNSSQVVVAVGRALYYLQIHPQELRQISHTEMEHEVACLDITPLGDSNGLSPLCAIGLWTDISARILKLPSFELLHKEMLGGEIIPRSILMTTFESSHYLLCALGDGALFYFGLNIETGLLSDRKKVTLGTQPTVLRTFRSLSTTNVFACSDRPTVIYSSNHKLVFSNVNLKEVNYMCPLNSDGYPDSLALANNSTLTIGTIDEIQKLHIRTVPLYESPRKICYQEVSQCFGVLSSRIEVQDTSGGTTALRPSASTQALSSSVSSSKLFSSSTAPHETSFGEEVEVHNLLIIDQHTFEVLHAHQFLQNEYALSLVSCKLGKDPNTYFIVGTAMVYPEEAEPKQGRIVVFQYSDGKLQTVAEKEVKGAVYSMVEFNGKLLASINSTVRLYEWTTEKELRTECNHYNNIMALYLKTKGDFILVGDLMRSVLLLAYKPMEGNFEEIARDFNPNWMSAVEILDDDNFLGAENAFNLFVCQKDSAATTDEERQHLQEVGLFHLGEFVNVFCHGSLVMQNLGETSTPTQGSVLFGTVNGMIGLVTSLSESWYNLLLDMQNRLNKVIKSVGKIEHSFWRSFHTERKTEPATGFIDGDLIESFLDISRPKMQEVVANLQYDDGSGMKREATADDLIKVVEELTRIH
Kind of data set: FLAG pull-down and Western blot against DDB1, HEK293 cells, with or without exogenous DDB1.

Excerpt for ERK: The relocated SOScat then activates Ras, which leads to ERK activation via the MAPK pathway.
The presence of SOS in the PM can activate Ras and promote ERK activity via the MAPK pathway (FIG. 2C, left). For targeting SOS to the PM, ZIF was first fused to the CAAX motif tagged with a red fluorescent protein (RFP). Next, CEL was fused to the catalytic domain of SOS (referred to as SOScat), which was tagged with a near infrared fluorescent protein IFP2 that helps visualizing SOScat translocation (FIG. 2C, left). […] To determine whether SOScat translocation activates ERK, a GFP translocation-based ERK activity reporter called ERK-KTR was used, which translocates from the nucleus to the cytoplasm upon activation of endogenous ERK (Regot et al. (2014) Cell 157:1724-1734).

As to `O=C1CCC(N2C(=O)c3ccccc3C2=O)C(=O)N1` (stereo not shown) [thalidomide], in the data set with other cells, the “toxicity in other cells” value is given as “no or little toxicity”.

In turn, “SUMO-mCherry-FKBP (from UniProt P62942 2-108)” came in with a dissolution of MYCN condensates after addition of rapamycin in data set [1] of 10 min. In the case of `Nc1cccc2c1CN(C1CCC(=O)NC1=O)C2=O` (stereo not shown) [lenalidomide], the “Ctgf mRNA, control without ZIF construct” value in the data set with Ctgf is given as “not upregulated”. In addition, the “toxicity in other cells” value in the data set on other cells was “no or little toxicity”. In addition, the ERK-KTR translocation result with ERK (cells expressing CEL-IFP2-SOScat and ZIF-RFP-CAAX) is given as “translocated from the nucleus to the cytoplasm”. The “ERK-KTR translocation, control without ZIF” value in the data set on ERK (cells expressing CEL-IFP2-SOScat without ZIF) was “did not induce ERK-KTR translocation”.

B1: FLAG-tagged CEL (109 amino acid CRBN C-terminal domain) (other)
chain: SLCCKQCQETEITTKNEIFSLSLCGPMAAYVNPHGYVHETLTVYKACNLNLIGRPSTEHSWFPGYAWTVAQCKICASHIGWKFTATKKDMSPQKFWGLTRSALLPTIPD
notes: Expressed in HEK293 cells; also called CRBN CTD; not shown: FLAG tag
For B1, the binding result in the data set with DDB1 is “no binding”.
